Results on 14 compounds are retold here after patent publication US20120309087A1, “CANCER THERAPY” (University Court of The University of Dundee, priority 2006, published 2012).

The subject of test [1] is ARE-driven luciferase activity in AREc32 cells. Nature of the test: Induction of ARE-driven luciferase activity in stable AREc32 reporter cells. The conditions noted are these: for CD, concentration of inducting agent that doubled luciferase reporter activity: DMSO set at 1; for effect on luciferase activity in AREc32 cells (in words): sub-lethal doses, no BSO; for Type of modulation: grouping of drugs by effect on luciferase activity. It is filed as cell-based, human.

Test [2] relates to AKR1C mRNA in AREc32 cells. Briefly: AKR1C mRNA in AREc32 cells (TaqMan). The conditions noted are these: without pre-treatment with BSO; 24 h. Background: In qPCR the cycle at which signal appears reflects the starting amount.
Test [3] concerns ARE-driven luciferase activity in AREc32 cells. Briefly: Antagonism of induced ARE-driven luciferase activity in AREc32 cells. It is filed as cell-based, human. The conditions noted are these: 5 mM NAC; BSO pre-treated cells; cisplatin, melphalan, chlorambucil, BCNU.
For test [4], the system named is AKR1C and NQO1 protein in MCF7 cells. Nature of the test: AKR1C and NQO1 protein in MCF7 cells (Western blots). It is filed as cell-based, human. The conditions noted are these: sulforaphane 5 μM + retinoid 0.5 μM, 24 hrs. As for the experimental part: Method: AREc32 cells were seeded out in 96 well plates and treated with DMSO (control), tBHQ (50 μM), tBHQ+BTB09463 (5 μM) or tBHQ+Retinoic acid (1 μM). After 24 hours incubation, cells were washed and lysed before measuring luciferase activity. BTB09463 is 1-{4-[(3,4-dichlorobenzyl)oxy]phenyl}ethan-1-one. […] Method: AREc32 cells were seeded out in 96 well plates and dosed with BTB09463 (2.5, 5 or 10 μM) for 0, 24 or 48 hrs before treatment with tBHQ (50 μM). 24 hours after the addition of tBHQ, cells were washed and lysed before measuring luciferase activity. […] Method: ARE c32 cells were seeded out in 96 well plates and treated with DMSO (control), tBHQ (50 μM), tBHQ+retinoid (0.25, 0.5 and 1 μM). After 24 hours incubation, cells were washed and lysed before measuring luciferase activity. […] See FIG. 16 Method: A. Caco-2 cells were treated with the known ARE-gene inducer sulforaphane (5 μM), either alone or concomitantly with BTB09463 (5 μM) or Retinoic acid (1 μM). After 24 hrs, cell lysates were prepared and Western blotting performed to measure the levels of AKR1C protein. B. MCF7 cells were treated with sulforaphane (5 μM), either alone or concomitantly with BTB09463 (5 μM). After 24 hrs, cell lysates were prepared and Western blots performed to detect the levels of AKR1C and NQO1; GAPDH was used as a loading control in MCF7 cells. […] Method: Caco-2 cells were treated with DMSO (control), BTB09463 (5 μM), sulforaphane (5 μM) or a combination of sulforaphane plus BTB09463. After 24 hrs treatment, cells were harvested and RNA isolated. cDNA for each sample was generated by reverse transcription and subsequently used in real time PCR analysis of gene transcription (TaqMan analysis) for the ARE-driven genes AKR1C1 and NQO1. Data was normalised to the internal control 18S RNA and the relative levels of AKR1C1 and NQO1 calculated using the comparative CT method. […] Method: MCF7 cells were treated with the known ARE-gene inducer sulforaphane (5 μM), either alone or with various retinoids (0.5 μM). After 24 hrs, cell lysates were prepared and Western blots were performed to detect the levels of AKR1C protein present. […] See FIG. 19 Method: ARE reporter cell line AREc23 was seeded into 96 well plates and treated with a previously determined non-toxic concentration of cytotoxic drug. After 24 hours incubation, cells were washed and lysed before measuring luciferase activity. […] See FIG. 20a Method: ARE reporter cell line AREc23 was seeded into 96 well plates and treated with DMSO (control), Carmustine (100 μM), Carmustine+BTB09463 (5 μM) or Carmustine+Retinoic acid (5 μM) After 24 hours incubation, cells were washed and lysed before measuring luciferase activity. […] After 24 hours incubation, cells were washed and lysed before measuring luciferase activity. B. Modified repeat of experiment A, with cells being pretreated with L-buthionine-(SR)-sulfoximine (BSO), an inhibitor of enzymes in the glutathione synthesis pathway. After 24 hours incubation, cells were washed and lysed before measuring luciferase activity. […] Method: Caco-2 cells were treated for 24 hrs with DMSO (control), Carmustine (100 μM), Carmustine+BTB09463 (5 μM). After 24 hrs, cell lysates were prepared and Western blots to detect the levels of AKR1C. […] Method: MCF7 cells were treated for 24 hrs with DMSO (control; Lane 1), Sulforaphane (5 μM) (Lane 2), Carmustine (100 μM) (Lane 3), Carmustine+BTB09463 (5 μM) (Lane 5). (Lane 4 represents experimental conditions irrelevant to the application). After 24 hrs, cell lysates were prepared and Western blots to detect the levels of Nrf2, NQO1 and AKR1C proteins.

The test system of another test is MCF7 cells. Nature of the test: cells. It counts as cell-based.
Test [5] has as its system AKR1C1, NQO1, GCLC, GCLM mRNA in A549 cells. Briefly: Constitutive mRNA of ARE-driven genes in A549 cells (Taqman). The conditions noted are these: BTB09463 1, 5, 20, 40 μmol/l or retinoids 0.050, 0.20, 0.50, 2.0 μmol/l, 24 hrs. It counts as cell-based, human.
In test [6] the test system is AKR1C1 and NQO1 mRNA in Caco-2 cells. Briefly: AKR1C1 and NQO1 mRNA in Caco-2 cells (TaqMan). It counts as cell-based, human. The conditions noted are these: sulforaphane 5 μM, 24 hrs. As for the experimental part: Method: AREc32 cells were seeded out in 96 well plates and treated with DMSO (control), tBHQ (50 μM), tBHQ+BTB09463 (5 μM) or tBHQ+Retinoic acid (1 μM). After 24 hours incubation, cells were washed and lysed before measuring luciferase activity. BTB09463 is 1-{4-[(3,4-dichlorobenzyl)oxy]phenyl}ethan-1-one. […] Method: AREc32 cells were seeded out in 96 well plates and dosed with BTB09463 (2.5, 5 or 10 μM) for 0, 24 or 48 hrs before treatment with tBHQ (50 μM). 24 hours after the addition of tBHQ, cells were washed and lysed before measuring luciferase activity. […] Method: ARE c32 cells were seeded out in 96 well plates and treated with DMSO (control), tBHQ (50 μM), tBHQ+retinoid (0.25, 0.5 and 1 μM). After 24 hours incubation, cells were washed and lysed before measuring luciferase activity. […] See FIG. 16 Method: A. Caco-2 cells were treated with the known ARE-gene inducer sulforaphane (5 μM), either alone or concomitantly with BTB09463 (5 μM) or Retinoic acid (1 μM). After 24 hrs, cell lysates were prepared and Western blotting performed to measure the levels of AKR1C protein. B. MCF7 cells were treated with sulforaphane (5 μM), either alone or concomitantly with BTB09463 (5 μM). After 24 hrs, cell lysates were prepared and Western blots performed to detect the levels of AKR1C and NQO1; GAPDH was used as a loading control in MCF7 cells. […] Method: Caco-2 cells were treated with DMSO (control), BTB09463 (5 μM), sulforaphane (5 μM) or a combination of sulforaphane plus BTB09463. After 24 hrs treatment, cells were harvested and RNA isolated. cDNA for each sample was generated by reverse transcription and subsequently used in real time PCR analysis of gene transcription (TaqMan analysis) for the ARE-driven genes AKR1C1 and NQO1. Data was normalised to the internal control 18S RNA and the relative levels of AKR1C1 and NQO1 calculated using the comparative CT method. […] Method: MCF7 cells were treated with the known ARE-gene inducer sulforaphane (5 μM), either alone or with various retinoids (0.5 μM). After 24 hrs, cell lysates were prepared and Western blots were performed to detect the levels of AKR1C protein present. […] See FIG. 19 Method: ARE reporter cell line AREc23 was seeded into 96 well plates and treated with a previously determined non-toxic concentration of cytotoxic drug. After 24 hours incubation, cells were washed and lysed before measuring luciferase activity. […] See FIG. 20a Method: ARE reporter cell line AREc23 was seeded into 96 well plates and treated with DMSO (control), Carmustine (100 μM), Carmustine+BTB09463 (5 μM) or Carmustine+Retinoic acid (5 μM) After 24 hours incubation, cells were washed and lysed before measuring luciferase activity. […] After 24 hours incubation, cells were washed and lysed before measuring luciferase activity. […]

Another test has as its system A549 cells. Briefly: Cytotoxicity in A549 cells (ATP levels, 72 h). It counts as cell-based, human. The conditions noted are these: single agent.

On to `COS(C)(=O)=O` [MMS], for which, in test [1] (AREc32, 24 h), the “CD, concentration of inducting agent that doubled luciferase reporter activity” value (“CD, concentration” for short) turned out to be 100 µM.

With `N[C@@H](Cc1ccc(N(CCCl)CCCl)cc1)C(=O)O` [Mephalan, melphalan], in test [1] (50 μM BSO 24 h, then 10 μM cisplatin, 20 μM melphalan, 100 μM BCNU or 100 μM chlorambucil 24 h), the “induction of luciferase activity after BSO pre-treatment” value turned out to be 5 fold. The “effect on luciferase activity in AREc32 cells (in words)” value (“effect on luciferase activity” below) in test [1] (24 h, listed as melphalan) is “weak inducers”; in test [1] (24 h, listed as mephalan), “modestly increased”. In addition, the “Fold increase (luciferase activity relative to control value)” value in test [1] (AREc32, 24 h, concentration of each drug given in column Conc., mean ± S.D.) is given as 1.3 ± 0.06. Besides, the Type of modulation entry in test [1] (AREc32, 24 h) is recorded as “Weak inducers”. Besides, the “mRNA level of AKR1C (in words)” value in test [2] is on record as “only slightly increased”.

`CN(Cc1cnc2nc(N)nc(N)c2n1)c1ccc(C(=O)N[C@@H](CCC(=O)O)C(=O)O)cc1` [Methotrexate]: the “effect on luciferase activity” value in test [1] (24 h) is “no effect”. In test [1] (AREc32, 24 h), the Type of modulation result was “Inactive”.

In the case of `O=C1c2c(O)ccc(O)c2C(=O)c2c(NCCNCCO)ccc(NCCNCCO)c21` [Mitozantrone], the “effect of BSO pre-treatment on luciferase activity” value in test [1] (50 μM BSO 24 h before drug, data not shown) is recorded as “did not change luciferase activity significantly”. Further, the Type of modulation result in test [1] (AREc32, 24 h) is “Weak inducers”.

Turning to `CC(=O)N[C@@H](CS)C(=O)O` [NAC], the “repression of anticancer drug induction of luciferase activity” value in test [3] is recorded as “nearly completely repressed”.

With `S=C(S)N1CCCC1` [PDTC], the “CD, concentration” value in test [1] (AREc32, 24 h) was 20 µM.

On to `CC(=O)O[C@H]1C(=O)[C@@]2(C)[C@H]([C@H](OC(=O)c3ccccc3)[C@]3(O)C[C@H](OC(=O)[C@H](O)[C@@H](NC(=O)c4ccccc4)c4ccccc4)C(C)=C1C3(C)C)[C@]1(OC(C)=O)CO[C@@H]1C[C@@H]2O` [Paclitaxol], for which the “effect on luciferase activity” value in test [1] (24 h) is given as “no effect”. Further, in test [1] (AREc32, 24 h), the Type of modulation entry was “Inactive”.

In the case of `CC(=O)OC/C=C(C)/C=C/C=C(C)/C=C/C1=C(C)CCCC1(C)C` [Retinyl acetate], the “sulforaphane-induced AKR1C protein” value in test [4] is on record as “reduced the expression of sulforaphane-induced AKR1C”. The “synergy with Bleomycin (cell killing, isobologram)” value in the test with MCF7 cells (72 hrs) is listed as “very potent, synergistic increase in cell killing”. Moreover, the “constitutive expression of AKR1C1 mRNA” value in test [5] is “inhibited the constitutive expression of AKR1C1 in a concentration-dependent manner”.

As for `C[S+]([O-])CCCCN=C=S` (centres unmarked) [SUL, sulforaphane], the “CD, concentration” value in test [1] (AREc32, 24 h) is 2 µM. For the same compound, in test [6], the “induction of AKR1C1 mRNA” value was found to be 12 fold and the “induction of NQO1 mRNA” value was “less markedly induced”.

Consider `S=P(N1CC1)(N1CC1)N1CC1` [Thiotepa], for which, in test [1] (24 h), the “effect on luciferase activity” value is given as “no effect”. For the same compound, the Type of modulation entry in test [1] (AREc32, 24 h) is “Inactive”.

With `CC1=C(/C=C/C(C)=C/C=C/C(C)=C/C=O)C(C)(C)CCC1` [all-trans retinal], the “sulforaphane-induced AKR1C protein” value in test [4] is “reduced the expression of sulforaphane-induced AKR1C”. The “constitutive expression of AKR1C1 mRNA” value in test [5] is listed as “inhibited the constitutive expression of AKR1C1 in a concentration-dependent manner”.

For the compound `CS(=O)(=O)OCCCCOS(C)(=O)=O` [busulphan], the “induction of ARE-driven luciferase activity” value in test [1] (previously determined non-toxic concentration, 24 hours) is reported as 3.1 fold.

`CCC(=O)OC/C=C(C)/C=C/C=C(C)/C=C/C1=C(C)CCCC1(C)C` [vitamin A propionate]: in test [4], the “sulforaphane-induced AKR1C protein” value was “reduced the expression of sulforaphane-induced AKR1C”.

A word on the IC50: it is the concentration that gives 50% inhibition. Read a low IC50 as greater potency in that assay. Regarding Bleomycin, the half-inhibitory concentration (IC50) is 660 µM in the test with MCF7 cells (single agent) and 55 µM with A549 cells.
